Source: patent US20240197760A1, “ACTIVATORS OF INTEGRATED STRESS RESPONSE PATHWAY FOR PROTECTION AGAINST FERROPTOSIS” (Burke Neurological Institute, priority 2021, published 2024)

Columns and labels:
hippocampal slices = test: Long term potentiation (fEPSP) in submerged hippocampal slices; parameters: species or system mouse; settings: 10 mM for 6 h in ACSF
From the text: Brains were quickly removed from mice sacrificed by cervical dislocation and placed in cold artificial cerebrospinal fluid (ACSF) (bubbled with 95% O2/5% CO2) containing (in mM): 124 NaCl, 4 KCl, 1 Na2HPO4, 25 NaHCO3, 2 CaCl2, 2 MgCl2, and 10 glucose. The pH and osmolarity of the solution were 7.4 and 310 mOsm/L, respectively. The hippocampus was isolated and placed on a mechanical tissue chopper to produce transverse hippocampal slices of 400 μm thickness. […] Hippocampal slices were allowed to recover for at least 90 min prior to beginning the experiment. For recordings, glass electrodes were filled with ACSF and positioned in the CA1 stratum radiatum to record fEPSPs evoked by local stimulation (0.1 ms) of Schaffer collateral fibers using a bipolar concentric electrode placed laterally to the recording electrode (˜150 μm). For LTP recordings, the voltage intensity of the stimulation test pulse (square pulse, 100 us duration) for each slice was determined to be the voltage intensity that had generated 30-40% of the maximum slope obtained using input-output relationships. Facilitation was calculated as the ratio of the slopes of the second and first fEPSPs, and plotted as a function of the inter-pulse duration. For LTP, a test pulse was applied every minute. […] Residual potentiation was calculated as the average of the last 15 min of 2 h of recordings.

ATF4 = ATF4 chromatin immunoprecipitation sequencing in primary neurons; type: cell-based, mouse; settings: 10 mM, 6 h
Experimental: ChIP-seq was performed according to the ChIPmentation protocol with minor modifications. In brief, 40 million primary neurons were used for each condition. Cells were fixed in methanol free formaldehyde (1% final concentration) for 10 min at room temperature with slow rotation to allow the cross-linking of chromatin proteins and DNA. Cross-linking was stopped by incubation with 0.125 M glycine for 5 min at room temperature. The cells were washed twice with ice-cold phosphate-buffered saline (PBS) and 2 ml of cell scrapping solution was added cell were scrapped and collected in respective tubes. Tubes with cells were centrifuged at 2800 rpm for 10 min at 4° C. and supernatant was aspirated out. Cell pellets left in the tube were resuspended in 300 μl of 0.25% SDS sonication buffer (10 mM Tris-HCl [pH 8.0], 2 mM EDTA, 0.25% SDS, and protease inhibitor cocktail). The lysates were transferred to 1.5 ml TPX microtubes for sonication (Diagenode, Catalog number: 20190430) and sonicated by Biorupter sonication device (Diagenode) to shear genomic DNA into 200-600 bp fragments. The lysates were centrifuged to remove debris and were then diluted 1:1.5 in equilibration buffer (10 mM Tris-HCl [pH 8.0], 1 mM EDTA, 1.67% Triton X-100, 0.17% sodium deoxycholate, 233 mM NaCl, and protease inhibitor cocktail). […]

SMILES: OC[C@H]1OC(O)C[C@@H](O)[C@@H]1O (stereo partly drawn) [2-DG, (4R,5S,6R)-6-(hydroxymethyl)oxane-2,4,5-triol]
- LTP in submerged hippocampal slices (hippocampal slices): significant increase
- ATF4 binding at Bdnf (ChIP-Seq) (ATF4): selective enrichment of ATF4 close to the transcription start site of Bdnf
- ATF4 binding to other plasticity genes (ChIP-Seq) (ATF4): enhanced binding of ATF4 to several plasticity genes
